Experimental findings from patent US20200231562A1, “NOVEL MACROLIDE ANTIBIOTICS” (HELMHOLTZ-ZENTRUM FÜR INFEKTIONSFORSCHUNG GMBH, priority 2014, published 2020) are described below.

Holding throughout (type): cell-based
Data set [1] deals with Mycobacterium vaccae IMET 10670. Put plainly: Agar diffusion assay. Particulars: Mycolicibacterium vaccae, IMET10670; 50 μL of 0.5 mg in 1 mL methanol per 7 mm hole; n.a. = no activity observed; read-out: diameter of inhibition zone. As to the method:
(§1) Antimicrobial activities of the gulmirecins were determined in a primary screen against Bacillus subtilis ATCC 6633, Staphylococcus aureus SG511, Staphylococcus auricularis DSM 20609, Mycobacterium vaccae IMET 10670, Pseudomonas aeruginosa K799/61, Escherichia coli SG458, Sporobolomyces salmonicolor SBUG 549, Candida albicans ATCC14053 and Penicillium notatum JP 36. To this end, holes with 7 mm diameter were aseptically punched in the respective agar medium. Subsequently, the agar plates were inoculated with the test organisms. 0.5 mg of every test compound was dissolved in 1 mL of methanol, and 50 μL of this solution was transferred to a single hole. Ciprofloxacin and amphotericin B served as positive controls. After evaporation of the solvent, the agar plates were incubated depending on the growth conditions of the test organisms. […] The test results are shown in Table 6 below, wherein the given values represent the diameters of the respective inhibition zone in the agar diffusion assay.
Background: Agar diffusion results depend on both activity and mobility in agar.

For data set [2], the system named is Bacillus subtilis ATCC 6633. Put plainly: Agar diffusion assay. Particulars: ATCC6633, 50 μL of 0.5 mg in 1 mL methanol per 7 mm hole, n.a. = no activity observed, read-out: diameter of inhibition zone. The method, then: as §1
The subject of data set [3] is S. aureus Newman in PMA-differentiated human THP-1 cell line (macrophages). Kind of data set: Intra-macrophage activity. An excerpt:
The PMA-differentiated human THP-1 cell line (macrophages) was used as cellular host for infection with S. aureus Newman at an MOI (multiplicity of infection) of 10. […] Intracellular bacteria were recovered and serial dilutions were streaked out on CASO-Agar for cfu counting. The reference drug rifampicin reduced the number of intracellular bacteria by ca. 4 logs (at 8×MIC).

Data set [4] has as its system Staphylococcus aureus Newman. Put plainly: MIC by microbroth dilution. Particulars: 16 h, 30° C., n.i. = no inhibition up to 67 μg/ml. As to the method:
(§2) Bacterial strains. Bacterial wildtype strains used in susceptibility assays were either part of HZI's strain collection or purchased from the German Collection of Microorgansims and Cell Cultures (Deutsche Sammlung von Mikroorganismen und Zellkulturen, DSMZ).
(§3) Minimum inhibitory concentration (MIC) was determined by microbroth dilution. In brief, overnight cultures of bacteria (EBS medium) were diluted to OD600 0.01. Disciformycin A (1) or B (2) dissolved in DMSO was added directly to the cultures in 96-well plates (Sarstedt, flat bottom) in duplicate and the compound was tested in serial dilution. […] After 16 h incubation at 900 rpm and 30° C. on a microplate shaker (Titramax, Heidolph) absorbance at 600 nm was measured using a microplate reader (POLARstar Omega, BMG Labtech). MIC values were determined by sigmoidal curve fitting.

In data set [5] the test system is Nocardioides simplex DSM 20130. Kind of data set: MIC by microbroth dilution. To be noted: Pimelobacter simplex, DSM20130, 16 h, 30° C., n.i. = no inhibition up to 67 μg/ml, read-out: MIC. The method, then:
as §2, §3

In data set [6] the test system is Paenibacillus polymyxa DSM 36. Kind of data set: MIC by microbroth dilution. Particulars: Paenibacillus polymyxa, DSM36, 16 h, 30° C., n.i. = no inhibition up to 67 μg/ml, read-out: MIC. As to the method:
as §2, §3
Background: Dilution methods test growth across graded concentrations, often in twofold steps.

In data set [7] the test system is Mycobacterium sp. DSM 43270. Kind of data set: MIC by microbroth dilution. Particulars: 16 h, 30° C., n.i. = no inhibition up to 67 μg/ml. The method, then: as §2, §3
Data set [8] has as its system Escherichia coli DSM 1116. Kind of data set: MIC by microbroth dilution. Particulars: 16 h, 30° C., n.i. = no inhibition up to 67 μg/ml. The method, then:
as §2, §3

Data set [9] has as its system Staphylococcus camosus DSM 20501. Put plainly: MIC by microbroth dilution. To be noted: 30° C., n.i. = no inhibition up to 67 μg/ml. As to the method: as §2, §3
Data set [10] has as its system Chromobacterium violaceum DSM 30191. Kind of data set: MIC by microbroth dilution. To be noted: 16 h, 30° C., n.i. = no inhibition up to 67 μg/ml. As to the method:
as §2, §3

Data set [11] concerns Staphylococcus aureus Mu50 (MRSA/VRSA) ATCC 700699. Kind of data set: MIC by microbroth dilution. Particulars: 16 h, 30° C., n.i. = no inhibition up to 67 μg/ml. As to the method:
as §2, §3

The subject of data set [12] is Staphylococcus aureus DSM 346. Put plainly: MIC by microbroth dilution. To be noted: Staphylococcus aureus, DSM346, 16 h, 30° C., n.i. = no inhibition up to 67 μg/ml, read-out: MIC. The method, then: as §2, §3
In data set [13] the test system is Staphylococcus aureus (MRSA) DSM-11822. Put plainly: MIC by microbroth dilution. Particulars: microbroth dilution, 16 h, 30° C., n.i. = no inhibition up to 67 μg/ml. As to the method: as §2, §3
Data set [14] relates to Pseudomonas aeruginosa DSM 50071. Put plainly: MIC by microbroth dilution. Particulars: 16 h, 30° C., n.i. = no inhibition up to 67 μg/ml. The method, then: as §2, §3
The test system of data set [15] is Mycobacterium diemhoferi DSM 43524. Kind of data set: MIC by microbroth dilution. Particulars: Mycobacterium, DSM43524, 16 h, 30° C., n.i. = no inhibition up to 67 μg/ml, read-out: MIC. The method, then:
as §2, §3

Data set [16] concerns Micrococcus luteus DSM 20030. Kind of data set: MIC by microbroth dilution. To be noted: Micrococcus luteus, DSM20030, 16 h, 30° C., n.i. = no inhibition up to 67 μg/ml, read-out: MIC. As to the method: as §2, §3
Data set [17] relates to Staphylococcus aureus N315 (MRSA). Put plainly: MIC by microbroth dilution. Particulars: 16 h, 30° C., n.i. = no inhibition up to 67 μg/ml. The method, then: as §2, §3
For data set [18], the system named is Bacillus subtilis DSM 10. Put plainly: MIC by microbroth dilution. To be noted: Bacillus subtilis, DSM10, 16 h, 30° C., n.i. = no inhibition up to 67 μg/ml, read-out: MIC. The method, then: as §2, §3
[19] abbreviates: Staphylococcus aureus, read-out: MIC.

Molecules are shown by their SMILES. Values after ≈ are worked out from the molar mass of the structure shown. Read-outs that look alike come from different tables or passages of the source.

A word on the zone of inhibition: it is the extent of the growth-free halo in a diffusion test. For `C/C=C(/C)[C@H]1C/C=C(\C)[C@@H](O[C@H]2O[C@H](CO)[C@@H](O)[C@@H]2O)[C@H](OC(=O)CC(C)C)C(=O)C[C@@H](O)[C@H](C)C(=O)O1` [Compound 3, gulmirecin A], the values for the zone of inhibition at 25 µg/hole in [1] and in data set [2] were 17 mm and 35 mm, respectively.
For orientation: MIC means the least concentration at which growth counts as inhibited. In the case of `C/C=C(/C)[C@H]1C/C=C(\C)[C@@H](O[C@H]2O[C@H](CO)[C@@H](O)[C@@H]2O)[C@H](OC(=O)CC(C)C)C(=O)C/C=C(/C)C(=O)O1` [Compound 1, disciformycin A], the “reduction of the number of intracellular bacteria” value in data set [3] (18 h, MOI 10, cfu counting, tested at 1×, 4× and 8×MIC) is recorded as 3 logs. The “cytotoxicity towards THP-1 host cells” value in data set [3] (18 h treatment of infected macrophages) was “without causing any apparent cytotoxicity”. Also, the minimum inhibitory concentration (MIC) in [4] is 8.0 µg/mL (≈ 15.2 µM); in data set [4] (Staphylococcus aureus, NEWMAN, read-out: MIC), 8 µg/mL (≈ 15.2 µM); in data set [5], 33.3 µg/mL (≈ 63.5 µM); in [6], 16.6 µg/mL (≈ 31.6 µM); in [7], “n.i”; in [8], “n.i”. Also, the MIC was 7.8 µg/mL (≈ 14.9 µM) in [9] (16 h); 7.8 µg/mL (≈ 14.9 µM) in [9] (Staphylococcus, DSM20501, 16 h, read-out: MIC); “n.i” in [10]; 2.0 µg/mL (≈ 3.81 µM) in [11]; 2 µg/mL (≈ 3.81 µM) in [11] (setting [19]); 16.6 µg/mL (≈ 31.6 µM) in data set [12]. Also, the MIC in [13] (setting [19]) was 4 µg/mL (≈ 7.62 µM); in [13], 4.0 µg/mL (≈ 7.62 µM); in [14], “n.i”; in data set [15], 33.3 µg/mL (≈ 63.5 µM); in data set [16], 67 µg/mL (≈ 128 µM); in data set [17], 8.0 µg/mL (≈ 15.2 µM). Also, the MIC in data set [17] (Staphylococcus aureus, MRSA, read-out: MIC) worked out at 8 µg/mL (≈ 15.2 µM); in data set [18], 4.2 µg/mL (≈ 8.01 µM).
